Test results published in patent publication US6518401B2, “Tumor necrosis factor stimulated gene 6 (TSG-6) protein” (New York University, priority 1991, dated 2003).

Legend:
[1] = test system: TSG-21 (Collagenase) mRNA; test: Northern blot analysis of TSG mRNA levels in FS-4 cells; format: cell-based, human; settings: growth arrested FS-4 cells, 16 h of treatment; TNF 20 ng/ml, CHX 10 ug/ml, IFN-β 500 U/ml, IFN-γ 100 U/ml, IL-1-α 1 ng/ml, EGF 25 ng/ml, TGF-β 2 ng/ml, poly(I).poly(C) 50 ug/ml, TPA 100 ng/ml, forskolin 10 uM, IBMX 100 uM
Experimental: (§1) The human diploid FS-4 foreskin fibroblast cell line (Vilcek, J. et al, Proc. Natl. Acad. Sci. USA 70:3909-3913 (1973)) was used at passage level 15 in all experiments. FS-4 cells were grown in Eagle minimal essential medium (E-MEM) supplemented with 6 mM HEPES, 3 mM Tricine, 50 μg/ml gentamicin, and 5% heat inactivated (56° C., 30 min) fetal bovine serum (FBS; GIBCO Laboratories, Grand Island, N.Y.). For experiments, 4×10^6 cells were seeded in 175 cm^2 Falcon flasks, incubated at 37° C., and allowed to grow to confluence over 6 days. The confluent monolayers were washed once with phosphate buffered saline and replenished with E-MEM containing […] FBS. The cultures were incubated in this medium for another 72 h at 37° C. to let the cells become quiescent and then treated with the appropriate agents, as specified herein.
(§2) Cytoplasmic RNA was fractionated on a 1% agarose gel containing formaldehyde and blotted onto Zeta-probe blotting membranes (Bio-Rad Laboratories, Richmond, Calif.). Cytoplasmic RNA was loaded at 10 μg/lane. Prehybridization and hybridization of Northern blots were performed as described (Lin, J.-X. et al, supra). Filters were probed with 32P-labeled cDNA insert from recombinant M13 clones and/or with 32P-labeled internal reference pHe7 insert. Northern blots were quantified with a laser densitometer.
(§3) The increase in mRNA levels ranged from about 3-fold (TSG-21) to over 100-fold (TSG-6 and TSG-8).
(§4) Table 3 provides a summary of a large number of experiments in which levels of mRNAs corresponding to the 8 distinct TSG cDNAs were determined in FS-4 cells exposed to various agents by Northern blot analysis. Three of the mRNAs (corresponding to TSG-8, TSG-12 and TSG-14) were inducible by the protein synthesis inhibitor, cycloheximide (CHX). […] In contrast, induction of the remaining 3 mRNAs by TNF was inhibited or reduced in the presence of CHX. Five of the mRNAs were inducible by IFN-β, but only two of these responded to […]. Simultaneous treatment with IFN-β reduced inducibility of TSG-1 (=IL-8) mRNA by TNF, but increased the inducibility of TSG-6 and TSG-37 mRNAs. All mRNAs were inducible by IL-1 and by the doublestranded RNA poly(I)-poly(C) or the phorbol ester 12-O-tetradecanoyl phorbol 13-acetate (TPA), but the efficiency of induction by these agents varied. Epidermal growth factor (EGF) was moderately efficient in increasing TSG-21 (=collagenase) and TSG-27 (=stromelysin) mRNA levels, and weakly stimulated several other mRNAs. PDGF and transforming growth factor-β (TGF-β) were only weakly effective, as were dibutyryl cyclic AMP (dBcAMP) and the phosphodiesterase inhibitor, isobutyl methyl xanthine (IBMX).

TSG-12 mRNA = test: as above; format: cell-based, human; settings: growth arrested FS-4 cells, 2 h; TNF 20 ng/ml, CHX 10 ug/ml, IFN-β 500 U/ml, IFN-γ 100 U/ml, IL-1-α 1 ng/ml, EGF 25 ng/ml, TGF-β 2 ng/ml, poly(I).poly(C) 50 ug/ml, TPA 100 ng/ml, A23187 1 uM, forskolin 10 uM, dBcAMP 100 uM, IBMX 100 uM
Experimental: as §1, §2, §3, §4

[2] = test system: TSG-27 (Stromelysin) mRNA; test: as above; format: cell-based, human; settings: growth arrested FS-4 cells, 16 h of treatment; TNF 20 ng/ml, CHX 10 ug/ml, IFN-β 500 U/ml, IFN-γ 100 U/ml, IL-1-α 1 ng/ml, EGF 25 ng/ml, TGF-β 2 ng/ml, poly(I).poly(C) 50 ug/ml, TPA 100 ng/ml, forskolin 10 uM, IBMX 100 uM
Experimental: as §1, §2, §3, §4

TSG-37 (MT-II) mRNA = test: as above; format: cell-based, human; settings: growth arrested FS-4 cells, 2 h; TNF 20 ng/ml, CHX 10 ug/ml, IFN-β 500 U/ml, IFN-γ 100 U/ml, IL-1-α 1 ng/ml, EGF 25 ng/ml, TGF-β 2 ng/ml, poly(I).poly(C) 50 ug/ml, TPA 100 ng/ml, A23187 1 uM, forskolin 10 uM, dBcAMP 100 uM, IBMX 100 uM
Experimental: as §1, §2, §3, §4

TSG-14 mRNA = test: as above; format: cell-based, human; settings: growth arrested FS-4 cells, 2 h; TNF 20 ng/ml, CHX 10 ug/ml, IFN-β 500 U/ml, IFN-γ 100 U/ml, IL-1-α 1 ng/ml, EGF 25 ng/ml, TGF-β 2 ng/ml, poly(I).poly(C) 50 ug/ml, TPA 100 ng/ml, A23187 1 uM, forskolin 10 uM, dBcAMP 100 uM, IBMX 100 uM
Experimental: as §1, §2, §3, §4

TSG-1 (IL-8) mRNA = test: as above; format: cell-based, human; settings: growth arrested FS-4 cells, 2 h; TNF 20 ng/ml, CHX 10 ug/ml, IFN-β 500 U/ml, IFN-γ 100 U/ml, IL-1-α 1 ng/ml, EGF 25 ng/ml, TGF-β 2 ng/ml, poly(I).poly(C) 50 ug/ml, TPA 100 ng/ml, A23187 1 uM, forskolin 10 uM, dBcAMP 100 uM, IBMX 100 uM
Experimental: as §1, §2, §3, §4

TSG-8 (MCAF) mRNA = test: as above; format: cell-based, human; settings: growth arrested FS-4 cells, 2 h; TNF 20 ng/ml, CHX 10 ug/ml, IFN-β 500 U/ml, IFN-γ 100 U/ml, IL-1-α 1 ng/ml, EGF 25 ng/ml, TGF-β 2 ng/ml, poly(I).poly(C) 50 ug/ml, TPA 100 ng/ml, A23187 1 uM, forskolin 10 uM, dBcAMP 100 uM, IBMX 100 uM
Experimental: as §1, §2, §3, §4

TSG-6 mRNA = test: as above; format: cell-based, human; settings: growth arrested FS-4 cells, 2 h; TNF 20 ng/ml, CHX 10 ug/ml, IFN-β 500 U/ml, IFN-γ 100 U/ml, IL-1-α 1 ng/ml, EGF 25 ng/ml, TGF-β 2 ng/ml, poly(I).poly(C) 50 ug/ml, TPA 100 ng/ml, A23187 1 uM, forskolin 10 uM, dBcAMP 100 uM, IBMX 100 uM
Experimental: as §1, §2, §3, §4

[3] = Stability of the TSG-6/IαI complex to denaturants and enzymes; format: physicochemical
Experimental: 100 μL of a TN-5 B insect cell culture supernatant containing TSG-6 protein was incubated with 100 μL of a 1:50 dilution of human serum for 1 hr. at 37° C. Thereafter, one 100-μL aliquot was mixed with 2 mL of 8 M urea and concentrated in a Centricon-10 unit to 100 μL (lane 2); the other aliquot was left untreated (lane 1). The reaction mixtures were then separated by SDS-PAGE and subjected to Western blot analysis with anti-TSG-6 antibody.
Partially purified IαI was incubated in the absence (lane 1) or presence of purified TSG-6 protein (lanes 3-5) at 37° C. for 1 hr. The sample containing both IαI and TSG-6 protein was divided into aliquots and further incubated without enzyme (lane 3), with 800 milliunits of chondroitin sulfate ABC lyase (lane 4), or with 1.6 units of hyaluronidase (lane 5). Lane 2 is a TSG-6 control without IαI. The reaction mixtures were separated by SDS-PAGE and analyzed by Western blotting with anti-TSG-6 antibody.
The Stable Crosslink in the TSG-6/IαI COmplex is Provided by a Gylcosaminoglycan Chain. The stability of the 120 kDa TSG-6/IαI complex during SDS-PAGE under reducing conditions raises the question of the nature of the interaction between TSG-6 and the other components of the complex.
It is known that the three polypeptide chains of IαI are cross-linked by a chondroitin sulfate chain (Enghild et al, J. Biol. Chem. 264:15975-15981 (1989); Jenssen et al, FEBS Lett. 230:195-200 (1988); Balduyck et al, Biol. Chem. Hoppe-Seyler 370:329-336 (1989). It has been shown that bikunin, HC2 of IαLI, and HC3 of pre-α-inhibitor (PαI) are covalently bound to chondroitin 4-sulfate (Enghild et al, J. Biol. Chem. 264:15975-15981 (1989); J. Bio. Chem. 266:747-751 (1991); J. Biol. Chem. 268:8711-8716 (1993). To determine if cross-linking via chondroitin sulfate is also required for the stability of the TSG-6/IαI complex, purified TSG-6 protein and IαI were first incubated together to allow the formation of the complex and then treated with chondroitin sulfate ABC lyase from Proteus vulgaris or hyaluronidase from Streptomyces hyalurolyticus.

Row | Compound | Relative Increase in mRNA Level TSG-21 (Collagenase) [1] | Relative Increase in mRNA Level TSG-12 (TSG-12 mRNA) | Relative Increase in mRNA Level TSG-27 (Stromelysin) [2] | Relative Increase in mRNA Level TSG-37 (MT-II) (TSG-37 (MT-II) mRNA) | Relative Increase in mRNA Level TSG-14 (TSG-14 mRNA) | Relative Increase in mRNA Level TSG-1 (IL-8) (TSG-1 (IL-8) mRNA) | Relative Increase in mRNA Level TSG-8 (MCAF) (TSG-8 (MCAF) mRNA) | Relative Increase in mRNA Level TSG-6 (TSG-6 mRNA) | stability of the 120-kDa complex to 8 M urea ([3]; 8 M urea added before SDS-PAGE) | stability of the complex to boiling in 2% SDS and 5% β-mercaptoethanol ([3]; SDS-PAGE under reducing conditions) | effect of chondroitin sulfate ABC lyase on the complex ([3]; preformed complex treated with chondroitin sulfate ABC lyase from Proteus vulgaris) | effect of hyaluronidase on the complex ([3]; preformed complex treated with hyaluronidase from Streptomyces hyalurolyticus) | stability of the complex to 8 M guanidine hydrochloride ([3]; treatment with 8 M guanidine hydrochloride, Western blot)
1 | EGF: Epidermal growth factor | ++ | + | ++ | + | + | 0 | + | 0 | – | – | – | – | –
2 | CCCC(=O)Nc1ncnc2c1ncn2[C@@H]1O[C@@H]2COP(=O)(O)O[C@H]2[C@H]1OC(=O)CCC [dBcAMP, N^6-2′-O-dibutyl adenosine cyclic 3′,5′-monophosphate] | – | + | – | – | 0 | 0 | + | 0 | – | – | – | – | –
3 | TGF-β | 0 | 0 | 0 | 0 | 0 | 0 | – | 0 | – | – | – | – | –
4 | PDGF | 0 | + | 0 | 0 | + | 0 | + | 0 | – | – | – | – | –
5 | C[C@@H]1C[C@@H]([C@H](O)CC2CC(=O)NC(=O)C2)C(=O)[C@@H](C)C1 [CHX, cycloheximide] | 0 | +++ | 0 | 0 | + | 0 | + | 0 | – | – | – | – | –
6 | IFN-γ: E. coli-derived human gamma interferon | 0 | + | 0 | 0 | 0 | 0 | ++ | 0 | – | – | – | – | –
7 | TSG-6/IαI complex: stable 120 kDa complex containing TSG-6 protein, bikunin and HC2 of IαI | – | – | – | – | – | – | – | – | did not affect | resistance | complete disappearance of the complex | no effect | still detectable
8 | CNc1ccc2oc(C[C@H]3O[C@@]4(CC[C@H]3C)O[C@H]([C@H](C)C(=O)c3ccc[nH]3)[C@H](C)C[C@H]4C)nc2c1C(=O)O [A23187] | – | ++ | – | 0 | 0 | + | ++ | + | – | – | – | – | –
9 | C=C[C@@]1(C)CC(=O)[C@]2(O)[C@@]3(C)[C@@H](O)CCC(C)(C)[C@@H]3[C@H](O)[C@H](OC(C)=O)[C@@]2(C)O1 [Forskolin, forskolin] | 0 | 0 | 0 | 0 | 0 | 0 | 0 | – | – | – | – | – | –
10 | CCCCCCCCCCCCCC(=O)O[C@@H]1[C@@H](C)[C@@]2(O)[C@@H](C=C(CO)C[C@]3(O)C(=O)C(C)=C[C@@H]23)[C@@H]2C(C)(C)[C@]12OC(C)=O [TPA, 12-O-tetradecanoylphorbol 13-acetate] | ++++ | ++ | ++++ | + | + | + | ++ | + | – | – | – | – | –
